Source: ChEMBL document CHEMBL6071212, “Studies of Structure-Activity Relationship of 2-(Pyrrolidin-1ylmethyl)-1H-pyrrole-Based ST2 Inhibitors and Their Inhibition of Mast Cells Activation” (ACS Med Chem Lett, 2024)
Activity calls are given as the source filed them. The rule behind the calls is not given here.

Assays:
[1] = Inhibition of ST2/IL-33 (unknown origin) by AlphaLISA assay; set-up: species or system Homo sapiens
[2] = Inhibition of ST2/IL-33 (unknown origin) expressed in HEK-Blue IL-33 cells assessed as decrease in NF-kappaB […]; format: cell-based; settings: Homo sapiens
[3] = Metabolic stability in mouse liver microsomes assessed as half life; format: ADME, Microsome
LAD2 [4] = assay: Inhibition of IL-1beta secretion in IL-33/substance P-stimulated human LAD2 cells incubated for 24 hrs followed by 48/80 addition measured after 30 mins by ELISA; format: functional, cell-based; settings: dose 10-30 µM, time 24.5 hrs
LAD2 [5] = assay: Inhibition of IL-1beta secretion in IL-33/substance P-stimulated human LAD2 cells at 50 uM incubated for 24 hrs followed by 48/80 addition measured after 30 mins by ELISA; format: functional, cell-based
LAD2 [6] = assay: Inhibition of ST2 in IL-33-stimulated human LAD2 cells assessed as residual activity at 30 uM incubated for 24 hrs by flow cytometry (reference value: 24.18 %); format: cell-based

SMILES | IC50 [1] [µM] | IC50 [2] [µM] | further results
CN(C)c1ccc(C2CCCN2Cc2cc(-c3ccc([N+](=O)[O-])cc3)[nH]n2)cc1 (configuration not stated) | > 100 | – | –
CN(C)c1ccc(C2COCCN2Cc2ccc(-c3ccc([N+](=O)[O-])cc3)[nH]2)cc1 (configuration not stated) | 80.2 | – | –
CN(C)c1ccc(C2CCCN2Cc2ccc(-c3ccc([N+](=O)[O-])c(C#N)c3)[nH]2)cc1 (configuration not stated) | 12.8 | – | –
Cc1cc(-c2ccc(CN3CCCC3c3cccc(N4CCC(O)C4)c3)[nH]2)ccc1[N+](=O)[O-] (configuration not stated) | 53.5 | – | –
CC(C)Oc1cc(-c2ccc(CN3CCCC3c3ccc(N(C)C)cc3)[nH]2)ccc1[N+](=O)[O-] (configuration not stated) | 15.6 | 10.2 | half-life [3]: 1.91 min
Cc1cc(-c2ccc(CN3CCCC3c3ccc(N(C)C)cc3)[nH]2)ccc1[N+](=O)[O-] (configuration not stated) | 8.12 | 9.57 | half-life [3]: 1.86 min
CN(C)c1ccc(C2CCCN2Cc2ccc(-c3ccc(C#N)cc3)[nH]2)cc1 (configuration not stated) | 33 | – | –
CN(C)c1ccc(C2CCCN2Cc2ccc(-c3ccc(C(N)=O)cc3)[nH]2)cc1 (configuration not stated) | 79.6 | – | –
Cc1cc(-c2ccc(CN3CCCC3c3cccc(N(C)C)c3)[nH]2)ccc1[N+](=O)[O-] (configuration not stated) | 10 | – | –
CN(C)c1ccc(C2CCCN2Cc2ccc(-c3ccc([N+](=O)[O-])c(C(N)=O)c3)[nH]2)cc1 (configuration not stated) | 37.1 | – | –
Cc1cc(-c2ccc(CN3CCCC3c3cccc(N[C@H]4CCOC4)c3)[nH]2)ccc1[N+](=O)[O-] (some centres not stated) | 56.2 | – | –
CN(C)c1ccc(C2CCCN2Cc2ccc(-c3ccc([N+](=O)[O-])cc3)s2)cc1 (configuration not stated) | 14.1 | – | –
CN(C)c1ccc(C2SCCN2Cc2ccc(-c3ccc([N+](=O)[O-])cc3)[nH]2)cc1 (configuration not stated) | 26.9 | 17.8 | –
CN(C)c1ccc(C2CCCN2Cc2ccc(-c3ccc([N+](=O)[O-])cc3)[nH]2)cc1 (configuration not stated) | 13 | 16.2 | –
CN(C)c1ccc(C2CCCN2Cc2ncc(-c3ccc([N+](=O)[O-])cc3)[nH]2)cc1 (configuration not stated) | 17.7 | – | –
Cc1cc(-c2ccc(CN3CCCC3c3cccc(N[C@@H]4CCOC4)c3)[nH]2)ccc1[N+](=O)[O-] (some centres not stated) | 75.6 | – | –
Cc1cc(-c2ccc(CN3CCCC3c3cccc(N4CCC4)c3)[nH]2)ccc1[N+](=O)[O-] (configuration not stated) | 14.7 | – | –
CN(C)c1ccc(C2CCCN2Cc2ccc(-c3ccc([N+](=O)[O-])cc3)o2)cc1 (configuration not stated) | 17.4 | – | –
Cc1cc(-c2ccc(CN3CCCC3c3cccc(N4CCCC4)c3)[nH]2)ccc1[N+](=O)[O-] (configuration not stated) | 7.74 | 12.1 | –

SMILES | IC50 [1] [µM] | IC50 [2] [µM] | further results
Cc1ccc([N+](=O)[O-])c(-c2ccc(CN3CCCC3c3ccc(N(C)C)cc3)[nH]2)c1 (configuration not stated) | 12.1 | 10.6 | –
CN(C)c1ccc(C2CCCN2Cc2ccc(-c3ccc([N+](=O)[O-])c(N4CCCC4)c3)[nH]2)cc1 (configuration not stated) | 7 | 7.19 | inhibition (LAD2 [4]): Dose-Dependent Effect; half-life [3]: 1.47 min
Cc1cc(-c2ccc(CN3CCCC3c3ccc(N4CCCC4)cc3)[nH]2)ccc1[N+](=O)[O-] (configuration not stated) | 7.48 | 11 | half-life [3]: 4.59 min
CN(C)c1ccc(C2CCCN2Cc2ccc(-c3ccc([N+](=O)[O-])c(C(=O)O)c3)[nH]2)cc1 (configuration not stated) | > 100 | – | –
CN(C)c1ccc(C2COCCN2Cc2ccc(-c3ccc4c(c3)OCO4)[nH]2)cc1 (configuration not stated) | 12.9 | 10.2 | –
Cc1ccc(-c2ccc(CN3CCCC3c3ccc(N(C)C)cc3)[nH]2)c([N+](=O)[O-])c1 (configuration not stated) | 20 | 10.3 | –
CN(C)c1ccc(C2CCCN2Cc2c[nH]c(-c3ccc([N+](=O)[O-])cc3)c2)cc1 (configuration not stated) | 17.9 | – | –
CN(C)c1ccc(C2CCCN2Cc2cnc(-c3ccc([N+](=O)[O-])cc3)[nH]2)cc1 (configuration not stated) | 24 | – | –
Cc1cc([N+](=O)[O-])ccc1-c1ccc(CN2CCCC2c2ccc(N(C)C)cc2)o1 (configuration not stated) | 7.77 | 52.5 | half-life [3]: 3.64 min
CN(C)c1ccc(C2CCCCN2Cc2ccc(-c3ccc([N+](=O)[O-])cc3)[nH]2)cc1 (configuration not stated) | 16.2 | 8.47 | –
CCNC(=O)c1cc(-c2ccc(CN3CCCC3c3ccc(N(C)C)cc3)[nH]2)ccc1[N+](=O)[O-] (configuration not stated) | 46.9 | – | –
CN(C)c1ccc(C2CCCN2Cc2ccc(-c3ccc([N+](=O)[O-])cc3)n2C)cc1 (configuration not stated) | 10.7 | – | –
CN(C)c1ccc(C2CCCN2Cc2ccc(-c3ccc([N+](=O)[O-])c(CO)c3)[nH]2)cc1 (configuration not stated) | 20.3 | – | –
COc1cc(OC)c2c(=O)cc(-c3ccc(OC)c(OC)c3)oc2c1 | – | – | inhibition (LAD2 [5]): Active
Cc1cc([N+](=O)[O-])ccc1-c1ccc(CN2CCCC2c2ccc(N(C)C)cc2)[nH]1 (configuration not stated) | 17.9 | 7.26 | –
CN(C)C(=O)c1cc(-c2ccc(CN3CCCC3c3ccc(N(C)C)cc3)[nH]2)ccc1[N+](=O)[O-] (configuration not stated) | 25 | – | –
COC(=O)c1cc(-c2ccc(CN3CCCC3c3ccc(N(C)C)cc3)[nH]2)ccc1[N+](=O)[O-] (configuration not stated) | 8.1 | 6.52 | half-life [3]: 2.2 min
CCn1c(CN2CCCC2c2ccc(N(C)C)cc2)ccc1-c1ccc([N+](=O)[O-])cc1 (configuration not stated) | 14.8 | – | –
COc1cc(-c2ccc(CN3CCCC3c3ccc(N(C)C)cc3)[nH]2)ccc1[N+](=O)[O-] (configuration not stated) | 12.2 | 7.15 | Activity (LAD2 [6]): 19.8%; half-life [3]: 7.8 min
